“Also recorded” adds a separate entry of the source.
How the values were obtained:
HepG2 cells [1] = experiment: Trypan blue-assessed cell viability under Cu-albumin, HepG2; type: cell-based, human; conditions: 750 μM copper, 250 μM albumin, 750 μM chelator
Source text: Afterwards, cells were trypsinized and counted.

[2] = tested on: primary porcine brain capillary endothelial cells (PBCECs); conditions: 750 μM copper and 250 μM albumin, 750 μM ALXN1840, 48 h
Source text: (§1) For transepithelial resistance (TEER) experiments (Srinivasan, B., et al., J Lab Autom, 2015. 20(2): p. 107-26), cryopreserved primary porcine brain capillary endothelial cells (PBCECs) were thawed and seeded either on rat tail collagen-coated 96-well plates for cytotoxicity testing using the Neutral red assay (Repetto, G., A. del Peso, and J. L. Zurita, Nat Protoc, 2008. 3(7): p. 1125-31) or Transwell® inserts (area: 1.12 cm^2, pore size: 0.4 μm: Corning, N.Y., USA) for barrier integrity studies. Cells were cultured for 48 hours in Earle's Medium 199 supplemented with 10% FCS, 50 U penicillin/mL, 50 μg/mL streptomycin, 100 μg/mL gentamycin and 0.7 mM I-glutamine and maintained at 37° C. in a humidified atmosphere with 5% CO2. […] TEER and capacitance values were continuously monitored over 48 h using a CellZscope device (nanoAnalytics, Münster, Germany). Only PBCEC monolayers with initial TEER values >600Ωcm^2 and capacitance values between 0.45 and 0.6 μF/cm^2 were used for permeability studies (Bornhorst, J., et al., J Biol Chem, 2012. 287(21): p. 17140-51). The barrier integrity was calculated by normalizing the TEER values to the respective start values.

PBCEC monolayers [3] = experiment: TEER and capacitance of PBCEC monolayers (endothelial blood-brain barrier model); type: cell-based, porcine
Source text: as §1

[4] = tested on: HepG2, EA.hy926, U87MG and SHSY5Y cells; experiment: Toxicity of the chelator itself in a copper-free setting, CellTiter-Glo; conditions: without external Cu-albumin addition
Procedure: (§2) SHSY5Y (human neuroblastoma), U87MG (human astrocytoma), EA.hy926 (human endothelium) and HepG2 (human hepatocellular carcinoma) cells were from ATCC (Wesel, Germany) and were cultured in Dulbecco's Modified Eagle Medium (DMEM) supplemented with 10% FCS (Biochrom, Berlin, Germany) and 1% antibiotic-antimycotic (Life Technologies, Carlsbad, USA). All cells were maintained at 37° C. in a humidified atmosphere with 5% CO2.

[5] = tested on: Zonula occludens-1 (ZO-1); experiment: Immunocytochemistry staining of Zonula occludens-1 in PBCEC monolayers; type: cell-based, porcine; conditions: 250 μM copper and 83.3 μM albumin, 250 μM chelator
Procedure: (§3) Total copper was determined by ICP-MS/MS as previously described (Kopp, J. F., et al., J Trace Elem Med Biol, 2019. 54: p. 221-225). For the immunocytochemical staining of tight junction proteins, confluent PBCECs cultivated on Transwell® membrane inserts were processed as previously described ([…]., et al., Archives of Toxicology 2018. 92(2): p. 823-832). Briefly, PBCECs were fixed with formaldehyde and permeabilized using Triton X-100. After blocking of unspecific binding sites by albumin, the cells were incubated with the either anti-claudin 5 or anti-ZO-1 antibody (Zytomed Systems GmbH, Berlin, Germany). Following a second blocking step, the cells were treated with an Alexa Fluor® 488 conjugated secondary antibody (Invitrogen, Molecular Probes Inc., Eugene, USA). Hoechst 33258 (Merck, Darmstadt, Germany) was used to stain cell nuclei. Subsequently, membranes were cut out of the inserts and mounted in Aqua Poly/Mount (Polysciences Inc., Washington, USA). After a solidification period of 24 hours, the samples were evaluated using a DM6 B fluorescence microscope by Leica Microsystems CMS GmbH (Wetzlar, Germany) in combination with the Leica Application Suite X.

EA.hy926 cells = experiment: High-resolution respirometry, EA.hy926; type: cell-based, human; conditions: EA.hy926, Cu-albumin-treated, vs Cu-albumin alone
Procedure: (§4) Oxygen consumption was assessed by high-resolution respirometry (HRR) using the Oxygraph-2k and DatLab 7.0 (Oroboros Instruments GmbH, Innsbruck, Austria) as described previously (Pesta, D. and E. Gnaiger, Methods Mol Biol, 2012. 810: p. 25-58). Per chamber, 1.5-2×10^6 living cells were supplied in 2 mL of MiR05 buffer (0.5 mM EGTA, 3 mM MgCl2, 60 mM lactobionic acid, 20 mM taurine, 10 mM KH2PO4, 20 mM HEPES, 110 mM sucrose, 1 g/L albumin, pH 7.1) and routine respiration was measured. Addition of 2.5 μM oligomycin (inhibitor of the FOF1-ATPase) enabled the measurement of leak respiration and stepwise addition of CCCP (1 μL steps from 1 mM stock solution) allowed the determination of the maximum oxygen flux and thereby the capacity of the electron transport system (ETS). The oxygen flux was baseline-corrected for non-mitochondrial oxygen consuming processes (ROX) by the addition of 2.5 μM of the complex III-inhibitor antimycin A.

[6] = tested on: tight junction protein claudin-5; experiment: Immunocytochemistry staining of claudin-5 in PBCEC monolayers; type: cell-based, porcine; conditions: 250 μM copper and 83.3 μM albumin, 250 μM chelator
Procedure: as §3

U87MG cells = experiment: High-resolution respirometry, U87MG; type: cell-based, human; conditions: Cu-albumin-treated, vs Cu-albumin alone
Procedure: as §4

HepG2 cells [7] = experiment: Cu-albumin cell toxicity, CellTiter-Glo, HepG2; type: cell-based, human
Procedure: as §2

PBCEC monolayers [8] = experiment: Copper in the basolateral compartment of the Transwell PBCEC model (ICP-MS/MS); type: cell-based, porcine; conditions: 250 μM copper and 83.3 μM albumin, 250 μM chelator, after 48 h
Source text: as §1

[9] = molecular target: Cu-albumin complex (bovine serum albumin) (Bos taurus, UniProt P02769); conditions: 750 μM copper, 250 μM albumin, molar ratio Cu-albumin-chelator 3:1:3
Procedure: 10 mg of fatty acid free bovine serum albumin (subsequently referred to as albumin, Carl Roth, Karlsruhe, Germany) were resuspended in 10 mM Tris-HCl buffer (pH 7.4) and mixed with 45 μL of 10 mM copper chloride. […] Briefly, 50 μL of each fraction were mixed with 10 μL 0.2% NQS, 10 μL of 0.2 M sodium phosphate buffer (pH 12.0) and 30 μL ddH2O in a clear 96-well plate. The samples were incubated for 20 min and absorbance was measured at 452 nm.

Sequence of Cu-albumin complex (bovine serum albumin) (P02769 25-607, one chain of several): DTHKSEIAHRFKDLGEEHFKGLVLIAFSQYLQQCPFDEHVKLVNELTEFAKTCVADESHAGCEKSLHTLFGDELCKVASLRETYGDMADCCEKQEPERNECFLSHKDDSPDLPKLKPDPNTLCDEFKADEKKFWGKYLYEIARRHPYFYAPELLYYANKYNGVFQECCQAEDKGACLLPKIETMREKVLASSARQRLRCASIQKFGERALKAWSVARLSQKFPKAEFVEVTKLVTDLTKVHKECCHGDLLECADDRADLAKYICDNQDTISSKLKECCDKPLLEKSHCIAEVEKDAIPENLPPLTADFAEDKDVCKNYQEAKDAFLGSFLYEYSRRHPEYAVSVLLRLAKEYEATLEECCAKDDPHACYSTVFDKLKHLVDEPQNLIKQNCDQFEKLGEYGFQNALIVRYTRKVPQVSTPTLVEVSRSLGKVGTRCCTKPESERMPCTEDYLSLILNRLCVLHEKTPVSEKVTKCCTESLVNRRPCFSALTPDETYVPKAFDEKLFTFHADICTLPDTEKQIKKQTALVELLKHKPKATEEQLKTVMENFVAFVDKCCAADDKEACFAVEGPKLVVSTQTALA

C[N+](C)(C)CCO.C[N+](C)(C)CCO.[SH-].[SH-].[S]=[Mo]=[S] [ALXN1840, bis-choline tetrathiomolybdate]
Trypan blue-assessed cell viability / copper-related cell toxicity (HepG2 cells [1]): rescued HepG2 cells
cell viability (neutral red) [2]: could be rescued
transepithelial electrical resistance (TEER) (PBCEC monolayers [3]; 250 μM copper and 83.3 μM albumin, 250 μM chelator, 48 h): stable TEER values for 48 h; also recorded: could be rescued
capacitance values (PBCEC monolayers [3]; Cu-albumin treatment in the absence or presence of chelator): unaffected
CellTiterGlo-assessed cell viability with chelator alone [4]: becomes toxic at elevated concentrations; also recorded: dose-dependent reduction
ZO-1 distribution (uneven, diffuse staining upon Cu-albumin) [5]: could be fully protected; also recorded: prevented
mitochondrial respiration (ETS) (EA.hy926 cells): significantly increased
respiratory control ratio E/L (ETS to leak respiration) (EA.hy926 cells): significantly increased
claudin-5 staining pattern / copper-induced gap formation [6]: continuous and uninterrupted; also recorded: less pronounced
respiratory control ratio E/L (ETS to leak respiration) (U87MG cells): tendentiously; also recorded: less pronounced
CellTiterGlo-assessed cell viability / Cu-albumin toxicity (HepG2 cells [7]; HepG2, 750 μM chelator): protected
CellTiterGlo-assessed cell viability / Cu-albumin toxicity (HepG2 cells [7]; HepG2, low dose of chelator (250 μM)): partially rescued
copper in the basolateral compartment (copper influx) (PBCEC monolayers [8]): fully avoided; also recorded: significantly lower amount of copper
distribution of copper, albumin and chelator over gel filtration fractions [9]: one prominent gel filtration peak appeared; also recorded: albumin, molybdenum and copper were present in the same fractions
